Measured values from patent publication US6743446B2, “Methods for stabilizing biologically active agents encapsulated in biodegradable controlled-release polymers” (The Ohio State University Research Foundation, priority 1999, dated 2004).
Values joined by “and” are separate entries in the source; they are usually repeats but may differ in a detail not shown here. Identical values can stand only once. Like-named read-outs stand apart in the source and are kept apart here.

Experiments:
[1] = pH measurement of saturated basic salts in water; assay type: physicochemical; details: excess basic salt suspended in water, 37° C., 7 days
Experimental: The suspension was then incubated at 37° C. for 7 days. The pH of the supernatant was determined with a Corning 430 pH meter (Corning Inc., NY).

[2] = pH of saturated basic salt suspension after addition of 1 N HCl; assay type: physicochemical; details: acid added to the saturated suspension with excess salt, 37° C., 3 days
Excerpt: The difference of the neutralization effect from the salts is also reflected in the different water contents of their PLGA devices.

[3] = pH of the release medium during incubation of polymer devices; assay type: physicochemical; details: 3% BSA/PLGA50/50 (0.20 dl/g) microspheres with 3% base, after 35 days
Excerpt: This effect was confirmed by changes in pH in the release medium and alteration of the PLGA degradation rate.
The pH of the release medium was monitored by a Corning 430 pH meter (Corning Inc., NY) at each sampling interval.

[4] = VCR and VBL stability and release in PLGA microspheres by HPLC; assay type: physicochemical; details: VCR PLGA microspheres with co-encapsulated base
Experimental: All other reagents and solvents were of analytical grade or purer and purchased from commercial suppliers. Microspheres Preparation Microspheres were prepared by a standard oil-in-oil emulsion-solvent extraction method (17). […] The resulting solution or suspension was added drop-wise to 25 ml of oil (95% cottonseed oil and 5% Span 85 emulsifier) stirred at 500 rpm and room temperature. After 2.5 h of microsphere hardening. 40 ml of petroleum ether (bp: 50 to 100° C.) were added to the emulsion to extract CAN. The emulsion was stirred for additional 15 min, the particles were collected by filtration, and washed 3 times with petroleum ether. The hardened microspheres were flash-frozen with liquid nitrogen and lyophilized with a Labconco Freezone 6 system for 1 day.
The HPLC system consisted of the following: a 510 pump, a 717 Plus autosampler, and a 486 UV detector (waters, Milford, Mass.). […] The mobile phase was composed of aqueous solution of sodium phosphate (10 mM) and methanol 40:60 (v/v) (pH 7.0). For UV detection, the wavelength was set to 298 nm.
Drug release from microspheres was carried out in PBS (127 mM NaCl, 3 mM KCl, 8 mM Na2HPO4, 1 mM KH2PO4, pH 7.4) containing Tween 80 (0.02% w/w/) (PBST) at 37° C. under perfect sink conditions. […] Microspheres were weighed and dissolved in a 50% (v/v) ACN water solution. The precipitated polymer and salts were spun down by brief centrifugation. An aliquot of the supernatant containing drug was removed and analyzed by HPLC.

[5] = reference (23); cited from earlier work

Structure (SMILES): [Mg+2].[OH-].[OH-] [Mg(OH)2]
- pH of saturated solution [1]: 9.97 and 9.76
- pH after addition of 100 μl of 1 N HCl [2]: 8.99
- pH of the release medium [3]: < 4.5
- drug degraded to the basic product during microsphere preparation [4]: 12%
- pH of saturated solution [5]: 9.8
